From PubChem BioAssay (NCI)
Several values for one entry are separate records, joined by “and”; a condition that tells them apart may be missing. Equal values may be shown once.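 Dose response: 5 concentrations. Exposure: 48 h. Format: 96-well plates. Endpoint: linear interpolation; highest concentration if not reached. The concentration for full growth arrest is given as TGI.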

Key:
Assay in all cases: NCI-60 cell line screen, 48 h
NCI/ADR-RES ovarian = system: NCI/ADR-RES ovarian
SK-OV-3 ovarian = system: SK-OV-3 ovarian
HOP-62 NSCLC = system: HOP-62 NSCLC
A498 renal = system: A498 renal
SN12C renal = system: SN12C renal
SW-620 colon = system: SW-620 colon
DU-145 prostate = system: DU-145 prostate
SNB-19 CNS = system: SNB-19 CNS
HCC-2998 colon = system: HCC-2998 colon
MDA-MB-231 breast = system: MDA-MB-231 breast

SMILES | TGI (NCI/ADR-RES ovarian) [µM] | TGI (SK-OV-3 ovarian) | TGI (HOP-62 NSCLC) | TGI (A498 renal) | TGI (SN12C renal) | TGI (SW-620 colon) | TGI (DU-145 prostate) [µM] | TGI (SNB-19 CNS) | TGI (HCC-2998 colon) | TGI (MDA-MB-231 breast) [µM]
OC(CC(c1ccccc1)c1ccc(Cl)cc1)c1ccc(Cl)cc1 (stereo unspecified) | 95.2 | 90.8 µM | 91.4 µM | 69.1 µM | > 100 µM | > 100 µM | > 100 | > 100 µM | > 100 µM | 
c1ccc2c(c1)CC1c3[nH]c4ccccc4c3CCN21 (stereo unspecified) | > 10 | > 10 µM | > 10 µM |  | > 10 µM | > 10 µM | > 10 | > 10 µM | > 10 µM | > 10
Cc1nc2c(n1Cc1ccc(Cl)cc1)C(=O)c1ccccc1C2=O |  | > 75 µM | > 75 µM |  | > 75 µM |  |  | > 75 µM | > 75 µM | 
CC(=O)O[C@]12CCCCCCC1C1(O)C(O)CCC[C@H]12 (stereo partly specified) |  | > 100 µM | > 100 µM |  | > 100 µM | > 100 µM |  | > 100 µM |  | 
CC1=NNC(N)=N/C1=C/C(Sc1ccc(Cl)cc1)c1cccs1 (stereo unspecified) | > 100 | 26.4 µM | 28.7 µM | 37.1 µM | 99.7 µM | 41.7 µM | 68.2 | 85.7 µM | 26.9 µM | 
CC(=O)N[C@@H](Cc1ccc(O)cn1)C(=O)NCc1ccc2c(c1)OCO2 | > 100 | > 100 µM | > 100 µM | > 100 µM | > 100 µM | > 100 µM | > 100 | > 100 µM | > 100 µM | 
Cc1ncc([N+](=O)[O-])n1CCN=[N+]=[N-] | > 100 | > 100 µM | > 100 µM | > 100 µM | > 100 µM | > 100 µM | > 100 | > 100 µM |  | > 100
O=C1NC(=O)/C(=C\c2ccncc2)N1 | > 100 | > 100 µM | > 100 µM |  | > 100 µM | > 100 µM | > 100 | > 100 µM | > 100 µM | > 100
COc1cc(C2C(Cl)C(=O)N2c2ccc(Br)cc2)cc(I)c1O (stereo unspecified) | > 100 | > 100 µM | > 100 µM | > 100 µM | > 100 µM | > 100 µM | > 100 | > 100 µM |  | > 100
c1ccc2c3c(ccc2c1)CSCc1ccc2ccccc2c1-3 | > 100 |  | > 100 µM | > 100 µM | > 100 µM |  | > 100 | > 100 µM | > 100 µM | > 100
O=C1CSC2(CC(/C=C/C=C/c3ccccc3)=NN2c2cccc(S(=O)(=O)O)c2)N1c1nc2ccccc2s1 (stereo unspecified) | > 100 |  |  | > 100 µM | > 100 µM | > 100 µM |  | > 100 µM | > 100 µM | > 100
CN(C)CCCn1c2ccccc2c2cnccc21 | > 100 | > 100 µM | > 100 µM | > 100 µM | 74.6 µM | > 100 µM | > 100 | > 100 µM |  | > 100
Cc1ccc2ccccc2c1CC1S(=O)(=O)OCCOS1(=O)=O | 72.4 |  | 28.5 µM |  | 23.7 µM |  | 24.1 | 25.9 µM | 15.8 µM | 29.1
CCCCCCCCCCCCC(=O)NCC(=O)NC(Cc1ccccc1)C(=O)Oc1ccc([N+](=O)[O-])cc1 (stereo unspecified) | > 100 |  | > 100 µM | > 100 µM | > 100 µM | > 100 µM | > 100 | > 100 µM | > 100 µM | > 100
C/C(=N\N=C(N)N)c1c(C(=O)OCCCCCCOC(=O)c2nc3sccn3c2/C(C)=N/N=C(N)N)nc2sccn12 | > 100 |  |  | > 100 µM | > 100 µM | > 100 µM |  | > 100 µM | > 100 µM | > 100
Brc1ccc(N2C[N+](c3ccc(Br)cc3)=NC(c3ccccc3)=N2)cc1 |  | 34.3 µM and > 100 µM | 31.2 µM and > 100 µM | 32.8 µM and > 100 µM | 33.3 µM and > 100 µM | 40.9 µM and > 100 µM |  | 32.6 µM and > 100 µM | 28.7 µM and > 100 µM | 
CC(=O)Oc1ccc2cc(Oc3ccc(Cl)cc3)c(=O)oc2c1 |  |  | > 100 µM | > 100 µM | > 100 µM | > 100 µM | > 100 | > 100 µM | > 100 µM | > 100
O=C1CCC2(CC1)Cc1ccccc1C2O (stereo unspecified) | > 100 | > 100 µM | > 100 µM |  | > 100 µM | > 100 µM | > 100 | > 100 µM | > 100 µM | > 100
NC1=NS(=O)(=O)N=C(N)C1=Cc1ccc([N+](=O)[O-])o1 |  | > 100 µM |  |  | 30.1 µM | 32.7 µM |  | > 100 µM | 45.8 µM | 

SMILES | TGI (NCI/ADR-RES ovarian) [µM] | TGI (SK-OV-3 ovarian) | TGI (HOP-62 NSCLC) | TGI (A498 renal) | TGI (SN12C renal) | TGI (SW-620 colon) | TGI (DU-145 prostate) [µM] | TGI (SNB-19 CNS) | TGI (HCC-2998 colon) | TGI (MDA-MB-231 breast) [µM]
C#CC(C)(C)Oc1cc(OC)c2c(=O)c3ccccc3n(C)c2c1 | 83.4 | 54.9 µM | > 100 µM |  | 49.9 µM | > 100 µM | 55.8 | 93.8 µM | > 100 µM | 56.1
O=C(c1cccs1)N(C(=S)N1CCN(c2ccccc2)CC1)c1ccccc1 |  | > 100 µM | > 100 µM |  | > 100 µM | > 100 µM |  | > 100 µM |  | 
Cc1cnc(Cl)nc1C(C#N)c1nc2ccccc2n1C (stereo unspecified) | > 100 | > 100 µM | > 100 µM | > 100 µM | > 100 µM | > 100 µM | > 100 | > 100 µM |  | > 100
O=[N+]([O-])c1ccc2nc3ccc([N+](=O)[O-])cn3c2c1 | > 100 | > 100 µM | 39.1 µM | > 100 µM | > 100 µM | > 100 µM | > 100 | > 100 µM |  | > 100
O=C1CCSSCCC(=O)Nc2ccccc2N1 | > 100 | > 100 µM | > 100 µM | > 100 µM | > 100 µM | > 100 µM | > 100 | > 100 µM |  | > 100
CC1(C)CC(=O)C(/C=N/c2nc(-c3ccc(Br)cc3)cs2)=C(O)C1 | > 100 | > 100 µM | > 100 µM |  | > 100 µM | > 100 µM | > 100 | > 100 µM | 80.9 µM | > 100
CCCCCCCCCCCCOC1C(COCCN2CCCC2)OC2OC(C)(C)OC21 (stereo unspecified) | 4.37 | 3.33 µM | 3.2 µM | 27.9 µM | 3.24 µM |  | 23.1 | 10.2 µM |  | 2.92
COC(=O)Cc1c(C2=Nc3ccccc3C2(O)CC(=O)OC)[nH]c2ccccc12 (stereo unspecified) | > 100 | > 100 µM | > 100 µM | > 100 µM | > 100 µM | > 100 µM | > 100 | > 100 µM |  | > 100
CCCCN(CCCC)C(=NCc1ccccc1)NC#N |  | 70.6 µM | 55.5 µM | 42.6 µM | 44.4 µM | 31 µM |  | 54.2 µM | 49.7 µM | 
Cc1ccc2c(c1)c(=O)c1c(NCCN(C)C)ccc3nnn2c31 |  | 37.6 µM | 21.5 µM | 12 µM | > 42 µM | 18 µM |  | 33.8 µM | 17 µM | 
CN(C)c1ccc(-c2nc(-c3cc4c(ccc5ccccc54)oc3=O)cs2)cc1 | > 100 | > 100 µM | > 100 µM |  | > 100 µM | > 100 µM | > 100 | > 100 µM | > 100 µM | > 100
COc1cc(C(=O)Nc2nnc(S(N)(=O)=O)s2)cc(OC)c1OC | > 100 | > 100 µM | > 100 µM |  | > 100 µM | > 100 µM | > 100 | > 100 µM | > 100 µM | > 100
CSc1c(C(C)=O)c(O)n(-c2ccc(Cl)cc2)c(=O)c1C#N | > 100 | > 100 µM |  | 93.5 µM | > 100 µM | > 100 µM | > 100 | > 100 µM | > 100 µM | > 100
Cc1ccc(S(=O)(=O)Nn2c(-c3ccccc3)c(C#N)c(-c3ccc([N+](=O)[O-])cc3)c(C#N)c2=O)cc1 | > 100 | > 100 µM | > 100 µM | > 100 µM | > 100 µM | > 100 µM |  | > 100 µM | > 100 µM | > 100
C=CCc1c(O)c2ccccc2[nH]c1=O | > 100 |  | > 100 µM | > 100 µM | > 100 µM | > 100 µM | > 100 | > 100 µM | > 100 µM | > 100
CN(C)c1ccc(C(=NNC(=O)c2cc3ccccc3[nH]2)c2ccc(N(C)C)cc2)cc1 |  | > 87.7 µM | 33.7 µM | 26.3 µM | > 93.9 µM | > 100 µM | > 100 | > 44.5 µM | 1.48 µM | 12.9
N#Cc1c(N)c(-c2ccc(Cl)cc2)c(F)c2ccccc12 | > 100 | > 100 µM | > 100 µM | > 100 µM | > 100 µM | > 100 µM |  | > 100 µM | > 100 µM | > 100
c1ccc(C2=NN3CN(N2)c2ccccc2OCCCOc2ccccc23)cc1 |  |  | > 100 µM |  | > 100 µM | > 100 µM |  | > 100 µM |  | 
CCOC(=O)c1c2c(n(C)c1-c1ccccc1)C(=O)C(C)=CC2=O | 23.3 | 30.4 µM | 33.6 µM | 34.8 µM | 24.1 µM | 19.8 µM | 35.2 | 26.7 µM |  | 4.62
